# Results as given in US10681909B2, “Herbicidal triazoles” (FMC Corporation, priority 2014, dated 2020).
# How the values were obtained:
# wheat (winter wheat) = test: Test C postemergence; format: in vivo, Triticum aestivum
# Method in brief: (§1)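 Preemergence: seeds sown in loam soil–sand blend and treated with test chemicals formulated in a non-phytotoxic solvent mixture containing a surfactant. Postemergence: plants grown in peat moss/vermiculite-based medium and sprayed with the same formulation at 2 to 18 cm height (1- to 4-leaf stage).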
# sedge, umbrella = test: Test B flooded paddy test; format: in vivo, Cyperus difformis; conditions: 250 g ai/ha, applied to paddy water at 2-leaf stage, visual rating after 13 to 15 d, scale 0 (no effect) to 100 (complete control)
# Method in brief: (§2)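 Pots were flooded to 3 cm above the soil at treatment, and compounds were applied directly into the paddy water. That depth was held throughout. After 13 to 15 d in a greenhouse, plants were rated visually against untreated controls.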
# lambsquarters = test: Test C postemergence; format: in vivo, Chenopodium album
# Method in brief: as §1
# chickweed = test: Test C postemergence; format: in vivo, Stellaria media
# Method in brief: as §1
# ducksalad = test: Test B flooded paddy test; format: in vivo, Heteranthera limosa; conditions: 250 g ai/ha, applied to paddy water at 2-leaf stage, visual rating after 13 to 15 d, scale 0 (no effect) to 100 (complete control)
# Method in brief: as §2
# oilseed rape = test: Test C postemergence; format: in vivo, Brassica napus
# Method in brief: as §1
# ragweed = test: Test C postemergence; format: in vivo, Ambrosia elatior
# Method in brief: as §1
# foxtail, giant [1] = test: Test A postemergence; format: in vivo, Setaria faberii; conditions: 0 to 100 scale (0 no effect, 100 complete control), approx. 10 d
# Method in brief: (§3)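 Test chemicals, formulated in a surfactant-containing non-phytotoxic solvent mixture, are applied either as a directed soil spray to newly planted seeds or as a postemergence application to plants at the one- to two-leaf stage (2–10 cm). All plants grow in a loam soil and sand blend.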
# barnyardgrass [2] = test: Test B flooded paddy test; format: in vivo, Echinochloa crus-galli; conditions: 250 g ai/ha, applied to paddy water at 2-leaf stage, visual rating after 13 to 15 d, scale 0 (no effect) to 100 (complete control)
# Method in brief: as §2
# pigweed [3] = test: Test A postemergence; format: in vivo, Amaranthus retroflexus; conditions: 0 to 100 scale (0 no effect, 100 complete control), approx. 10 d
# Method in brief: as §3
# corn [4] = test: Test A postemergence; format: in vivo, Zea mays; conditions: 0 to 100 scale (0 no effect, 100 complete control), approx. 10 d
# Method in brief: as §3
# nutsedge, yellow = test: Test C postemergence; format: in vivo, Cyperus esculentus
# Method in brief: as §1
# pigweed [5] = test: Test C postemergence; format: in vivo, Amaranthus retroflexus
# Method in brief: as §1
# corn [6] = test: Test C postemergence; format: in vivo, Zea mays
# Method in brief: as §1
# foxtail, giant [7] = test: Test C postemergence; format: in vivo, Setaria faberii
# Method in brief: as §1
# rice = test: Test B flooded paddy test; format: in vivo, Oryza sativa; conditions: 250 g ai/ha, applied to paddy water at 2-leaf stage, visual rating after 13 to 15 d, scale 0 (no effect) to 100 (complete control)
# Method in brief: as §2
# galium = test: Test C postemergence; format: in vivo, Galium aparine
# Method in brief: as §1
# ryegrass, Italian = test: Test C postemergence; format: in vivo, Lolium multiflorum
# Method in brief: as §1
# johnsongrass = test: Test C postemergence; format: in vivo, Sorghum halepense
# Method in brief: as §1
# oat, wild = test: Test C postemergence; format: in vivo, Avena fatua
# Method in brief: as §1
# barnyardgrass [8] = test: Test A postemergence; format: in vivo, Echinochloa crus-galli; conditions: 0 to 100 scale (0 no effect, 100 complete control), approx. 10 d
# Method in brief: as §3
smiles,measurement,setting,value
CCOc1nc(-c2ccccc2)nn1Cc1ccnc(C(F)(F)F)c1 [Compound 27],Plant response rating (scale of 0 to 100 where 0 is no effect and 100 is complete control),wheat (winter wheat); 31 g ai/ha,5
same,Plant response rating (scale of 0 to 100 where 0 is no effect and 100 is complete control),wheat (winter wheat); 62 g ai/ha,5
same,Plant response rating (scale of 0 to 100 where 0 is no effect and 100 is complete control),wheat (winter wheat); 125 g ai/ha,5
same,Plant response rating (scale of 0 to 100 where 0 is no effect and 100 is complete control),wheat (winter wheat); 250 g ai/ha,15
same,"Plant response rating, Sedge, Umbrella, Flood","sedge, umbrella",95
same,Plant response rating (scale of 0 to 100 where 0 is no effect and 100 is complete control),lambsquarters; 31 g ai/ha,85
same,Plant response rating (scale of 0 to 100 where 0 is no effect and 100 is complete control),lambsquarters; 62 g ai/ha,95
same,Plant response rating (scale of 0 to 100 where 0 is no effect and 100 is complete control),lambsquarters; 125 g ai/ha,98
same,Plant response rating (scale of 0 to 100 where 0 is no effect and 100 is complete control),lambsquarters; 250 g ai/ha,98
same,Plant response rating (scale of 0 to 100 where 0 is no effect and 100 is complete control),chickweed; 31 g ai/ha,95
same,Plant response rating (scale of 0 to 100 where 0 is no effect and 100 is complete control),chickweed; 62 g ai/ha,90
same,Plant response rating (scale of 0 to 100 where 0 is no effect and 100 is complete control),chickweed; 125 g ai/ha,90
same,Plant response rating (scale of 0 to 100 where 0 is no effect and 100 is complete control),chickweed; 250 g ai/ha,90
same,"Plant response rating, Ducksalad, Flood",ducksalad,90
same,Plant response rating (scale of 0 to 100 where 0 is no effect and 100 is complete control),"oilseed rape; Oilsee Rape, 250 g ai/ha",90
same,Plant response rating (scale of 0 to 100 where 0 is no effect and 100 is complete control),"oilseed rape; Oilseed Rape, 31 g ai/ha",90
same,Plant response rating (scale of 0 to 100 where 0 is no effect and 100 is complete control),"oilseed rape; Oilseed Rape, 62 g ai/ha",90
same,Plant response rating (scale of 0 to 100 where 0 is no effect and 100 is complete control),"oilseed rape; Oilseed Rape, 125 g ai/ha",90
same,Plant response rating (scale of 0 to 100 where 0 is no effect and 100 is complete control),ragweed; 31 g ai/ha,55
same,Plant response rating (scale of 0 to 100 where 0 is no effect and 100 is complete control),ragweed; 62 g ai/ha,60
same,Plant response rating (scale of 0 to 100 where 0 is no effect and 100 is complete control),ragweed; 125 g ai/ha,25
same,Plant response rating (scale of 0 to 100 where 0 is no effect and 100 is complete control),ragweed; 250 g ai/ha,70
same,"Plant response rating, Foxtail, Giant","foxtail, giant [1]; 125 g ai/ha",90
same,"Plant response rating, Foxtail, Giant","foxtail, giant [1]; 500 g ai/ha",100
same,"Plant response rating, Barnyardgrass, Flood",barnyardgrass [2],50
same,"Plant response rating, Pigweed",pigweed [3]; 125 g ai/ha,100
same,"Plant response rating, Pigweed",pigweed [3]; 500 g ai/ha,100
same,"Plant response rating, Corn",corn [4]; 125 g ai/ha,60
same,"Plant response rating, Corn",corn [4]; 500 g ai/ha,70
same,Plant response rating (scale of 0 to 100 where 0 is no effect and 100 is complete control),"nutsedge, yellow; 31 g ai/ha",5
same,Plant response rating (scale of 0 to 100 where 0 is no effect and 100 is complete control),"nutsedge, yellow; 62 g ai/ha",5
same,Plant response rating (scale of 0 to 100 where 0 is no effect and 100 is complete control),"nutsedge, yellow; 125 g ai/ha",10
same,Plant response rating (scale of 0 to 100 where 0 is no effect and 100 is complete control),"nutsedge, yellow; 250 g ai/ha",10
same,Plant response rating (scale of 0 to 100 where 0 is no effect and 100 is complete control),pigweed [5]; 31 g ai/ha,85
same,Plant response rating (scale of 0 to 100 where 0 is no effect and 100 is complete control),pigweed [5]; 62 g ai/ha,85
same,Plant response rating (scale of 0 to 100 where 0 is no effect and 100 is complete control),pigweed [5]; 125 g ai/ha,95
same,Plant response rating (scale of 0 to 100 where 0 is no effect and 100 is complete control),pigweed [5]; 250 g ai/ha,95
same,Plant response rating (scale of 0 to 100 where 0 is no effect and 100 is complete control),corn [6]; 31 g ai/ha,10
same,Plant response rating (scale of 0 to 100 where 0 is no effect and 100 is complete control),corn [6]; 62 g ai/ha,15
same,Plant response rating (scale of 0 to 100 where 0 is no effect and 100 is complete control),corn [6]; 125 g ai/ha,10
same,Plant response rating (scale of 0 to 100 where 0 is no effect and 100 is complete control),corn [6]; 250 g ai/ha,25
same,Plant response rating (scale of 0 to 100 where 0 is no effect and 100 is complete control),"foxtail, giant [7]; 31 g ai/ha",5
same,Plant response rating (scale of 0 to 100 where 0 is no effect and 100 is complete control),"foxtail, giant [7]; 62 g ai/ha",10
same,Plant response rating (scale of 0 to 100 where 0 is no effect and 100 is complete control),"foxtail, giant [7]; 125 g ai/ha",10
same,Plant response rating (scale of 0 to 100 where 0 is no effect and 100 is complete control),"foxtail, giant [7]; 250 g ai/ha",15
same,"Plant response rating, Rice, Flood",rice,30
same,Plant response rating (scale of 0 to 100 where 0 is no effect and 100 is complete control),galium; 31 g ai/ha,90
same,Plant response rating (scale of 0 to 100 where 0 is no effect and 100 is complete control),galium; 62 g ai/ha,90
same,Plant response rating (scale of 0 to 100 where 0 is no effect and 100 is complete control),galium; 125 g ai/ha,85
same,Plant response rating (scale of 0 to 100 where 0 is no effect and 100 is complete control),galium; 250 g ai/ha,90
same,Plant response rating (scale of 0 to 100 where 0 is no effect and 100 is complete control),"ryegrass, Italian; 31 g ai/ha",5
same,Plant response rating (scale of 0 to 100 where 0 is no effect and 100 is complete control),"ryegrass, Italian; 62 g ai/ha",20
same,Plant response rating (scale of 0 to 100 where 0 is no effect and 100 is complete control),"ryegrass, Italian; 125 g ai/ha",30
same,Plant response rating (scale of 0 to 100 where 0 is no effect and 100 is complete control),"ryegrass, Italian; 250 g ai/ha",35
same,Plant response rating (scale of 0 to 100 where 0 is no effect and 100 is complete control),johnsongrass; 31 g ai/ha,5
same,Plant response rating (scale of 0 to 100 where 0 is no effect and 100 is complete control),johnsongrass; 62 g ai/ha,45
same,Plant response rating (scale of 0 to 100 where 0 is no effect and 100 is complete control),johnsongrass; 125 g ai/ha,100
same,Plant response rating (scale of 0 to 100 where 0 is no effect and 100 is complete control),"oat, wild; 31 g ai/ha",10
same,Plant response rating (scale of 0 to 100 where 0 is no effect and 100 is complete control),"oat, wild; 62 g ai/ha",10
same,Plant response rating (scale of 0 to 100 where 0 is no effect and 100 is complete control),"oat, wild; 125 g ai/ha",25
same,Plant response rating (scale of 0 to 100 where 0 is no effect and 100 is complete control),"oat, wild; 250 g ai/ha",40
same,"Plant response rating, Barnyardgrass",barnyardgrass [8]; 125 g ai/ha,90
same,"Plant response rating, Barnyardgrass",barnyardgrass [8]; 500 g ai/ha,90
